In patent US9855253B2, “Pharmaceutical composition containing FK506 derivative for treating fungal infection caused by genus Cryptococcus and genus Candida and use thereof” (INTRON BIOTECHNOLOGY CO., LTD., priority 2014, dated 2018):

How the values were obtained:
Cryptococcus neoformans = assay: standard agar diffusion method (paper disk), antifungal activity; format: cell-based; details: for zone of inhibition at 10 µg/mL: Cryptococcus neoformans treated with 10 μg/ml, 6 mm disk, PDA medium, incubated 2-3 days, read-out: diameters of the inhibition zones; for inhibition zones at higher concentrations (FIGS. 1 and 2): concentrations of 10 μg/ml and 40 μg/ml
Experimental: The antifungal activities of FK506 derivatives against fungi such as Cryptococcus neoformans and Candida albicans, which are human pathogenic yeasts, were analyzed by the standard agar diffusion method (Murray et al., 1995 Manual of clinical microbiology (6th ed.), Washington, ASM Press, pp. 1275-1294), 100 μL of a standardized inoculam containing 10^7 CFU/ml, of a fungal suspension was uniformly plated in a Petri dish containing 20 mL of potato-dextrose agar (PDA) medium, and was dried for 5 minutes. A sterilized Whatman No. 1 filter paper disk baying a diameter of 6 mm was wet with each of 0.1 μg, 1 μg, 10 μg and 40 μg/ml of FK506 derivative dissolved in the same solvent as that used for extraction. As a control, an untreated disk and a disk wet with FK506 were used. Each plate was incubated at 30° C. and 37° C. for 2-3 days, and then the antifungal activity of each FK506 derivative was evaluated by comparing the diameters of inhibition zones against Cryptococcus neoformans and Candida albicans. The experiment for analysis of the antifungal activity was repeated at least three times. […] The diameters of the inhibition zones are shown in units of mm.

Candida albicans = assay: serum sensitivity of Candida albicans as a function of time (FIG. 3); format: cell-based; details: result in words
Text: FIG. 3 is a graph showing the inhibitory activity of a composition according to one embodiment of the present invention against Candida albicans as a function of time. FIG. 3 is a graph showing an increased or decreased change in the serum sensitivity of Candida albicans for 31-O-demethyl-FK506 that is FK506 derivative. Lower serum sensitivity with the passage of time indicates higher antifungal activity.

[1] = background statement; result in words; cited from earlier work

## C=CC[C@@H]1/C=C(\C)C[C@H](C)C[C@H](OC)[C@H]2O[C@@](O)(C(=O)C(=O)N3CCCC[C@H]3C(=O)O[C@H](/C(C)=C/C3CC[C@@H](O)[C@H](O)C3)[C@H](C)C(O)CC1=O)[C@H](C)C[C@@H]2OC (stereo in doubt) [Formula (I), 31-O-demethyl-FK506]
Cryptococcus neoformans
  zone of inhibition at 10 µg/mL: 26.4 mm
Cryptococcus neoformans; comparison with FK506, result in words
  inhibitory activity against Cryptococcus neoformans compared with FK506: inhibitory activity higher than FK506
Cryptococcus neoformans; result in words
  inhibition zones at higher concentrations (FIGS. 1 and 2): large inhibition zones
  inhibitory activity against Cryptococcus neoformans (FIGS. 1 and 2): had inhibitory activity
Candida albicans; from 6 hours after treatment
  inhibitory activity against Candida albicans compared with FK506, late time points (FIG. 3): maintained inhibitory activity higher than FK506
Candida albicans; serum sensitivity over time
  inhibitory activity against Candida albicans compared with FK506 (FIG. 3): almost equal to that of FK506

## C=CC[C@@H]1/C=C(\C)C[C@H](C)C[C@H](OC)[C@H]2O[C@@](O)(C(=O)C(=O)N3CCCC[C@H]3C(=O)O[C@H](/C(C)=C/[C@@H]3CC[C@@H](O)[C@H](OC)C3)[C@H](C)[C@@H](O)CC1=O)[C@H](C)C[C@@H]2OC [FK506]
Cryptococcus neoformans
  zone of inhibition at 10 µg/mL: 16.8 mm
[1]
  toxicity or side effects relative to Cyclosporine A: comparable to Cyclosporine A

## C=CC[C@@H]1/C=C(\C)C[C@H](C)C[C@H](OC)[C@H]2O[C@@](O)(CC(=O)N3CCCC[C@H]3C(=O)O[C@H](/C(C)=C/C3CC[C@@H](O)[C@H](OC)C3)[C@H](C)[C@H](O)CC1=O)[C@H](C)C[C@@H]2OC (stereo partly shown) [Formula (II), 9-deoxo-FK506]
Cryptococcus neoformans
  zone of inhibition at 10 µg/mL: 21.6 mm
Cryptococcus neoformans; result in words
  inhibitory activity against Cryptococcus neoformans (FIGS. 1 and 2): had inhibitory activity

## C=CC[C@@H]1/C=C(\C)C[C@H](C)C[C@H](OC)[C@H]2O[C@@](O)(CC(=O)N3CCCC[C@H]3C(=O)O[C@H](/C(C)=C/C3CC[C@@H](O)[C@H](O)C3)[C@H](C)[C@H](O)CC1=O)[C@H](C)C[C@@H]2OC (stereo partly shown) [Formula (III), 9-deoxo-31-O-demethyl-FK506]
Cryptococcus neoformans
  zone of inhibition at 10 µg/mL: 21.6 mm
Cryptococcus neoformans; result in words
  inhibition zones at higher concentrations (FIGS. 1 and 2): large inhibition zones
  inhibitory activity against Cryptococcus neoformans (FIGS. 1 and 2): had inhibitory activity
